Source: patent US12226424B2, “Target protein degradation compounds, their anti-tumor use, their intermediates and use of intermediates” (ShanghaiTech University, priority 2018, dated 2025)

How the values were obtained:
ER protein = target: T1, ER protein (Homo sapiens, UniProt P03372); test: Western blot half degradation concentration (DC50) of ER protein in T-47D cells; format: cell-based; settings: 24 h, read-out: DC50 (nM)/T-47D cell line
T1 construct: detect the expression of ER protein in T-47D cells; endogenous in cells; host or cells: T-47D
T1 sequence (P03372 1-595): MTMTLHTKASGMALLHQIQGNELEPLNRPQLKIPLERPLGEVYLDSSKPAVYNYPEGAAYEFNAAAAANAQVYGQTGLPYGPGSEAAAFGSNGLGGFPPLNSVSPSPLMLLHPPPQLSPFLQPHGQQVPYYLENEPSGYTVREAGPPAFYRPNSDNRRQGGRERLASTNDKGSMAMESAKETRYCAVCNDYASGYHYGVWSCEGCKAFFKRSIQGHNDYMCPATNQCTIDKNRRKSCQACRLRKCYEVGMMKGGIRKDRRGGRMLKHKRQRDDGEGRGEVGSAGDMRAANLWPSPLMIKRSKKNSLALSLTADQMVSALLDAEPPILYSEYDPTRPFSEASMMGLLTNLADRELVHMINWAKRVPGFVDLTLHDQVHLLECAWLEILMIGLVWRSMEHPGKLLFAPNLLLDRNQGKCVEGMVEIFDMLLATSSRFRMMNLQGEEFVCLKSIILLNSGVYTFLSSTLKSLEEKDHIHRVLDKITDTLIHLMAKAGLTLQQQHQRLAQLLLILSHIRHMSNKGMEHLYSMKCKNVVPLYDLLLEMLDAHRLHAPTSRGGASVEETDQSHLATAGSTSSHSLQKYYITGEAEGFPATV
Protocol: ER positive cells T-47D cells (human breast cancer cells) were purchased from the Cell Bank of the Chinese Academy of Sciences;
The cells used in this present disclosure were cultured in a 37° C. incubator containing 5% CO2. The complete cell culture medium was RPMI 1640 medium with 10% fetal bovine serum, and the final concentrations of penicillin and streptomycin were 100 U/mL, respectively. All cells were tested negative for mycoplasma with mycoplasma detection kit before the experiment.
Western Blot Determination of the Half Degradation Concentration (DC50) of the PROTAD Compounds on Target Proteins
The PROTAD compounds of the present disclosure were tested at 5 concentration of 1 nM, 10 nM, 50 nM, 100 nM, 500 nM, respectively, or 5 concentration gradients of 0.04 nM, 0.2 nM, 1 nM, 10 nM, 50 nM, and DMSO and commercial parent inhibitor groups (tamoxifen, toremifene) were set as negative and positive controls at the same time. After the drug treatment for 24 h, cells were washed twice with PBS, and lyzed by adding 50 μL of SDS lysate to each well for lysis on ice for 5 min.

c-ABL [1] = target: T2, c-ABL (Homo sapiens, UniProt P00519); test: Western-blot detection of c-ABL protein degradation (FIGS. 1-15); format: cell-based
T2 sequence (P00519 whole entry): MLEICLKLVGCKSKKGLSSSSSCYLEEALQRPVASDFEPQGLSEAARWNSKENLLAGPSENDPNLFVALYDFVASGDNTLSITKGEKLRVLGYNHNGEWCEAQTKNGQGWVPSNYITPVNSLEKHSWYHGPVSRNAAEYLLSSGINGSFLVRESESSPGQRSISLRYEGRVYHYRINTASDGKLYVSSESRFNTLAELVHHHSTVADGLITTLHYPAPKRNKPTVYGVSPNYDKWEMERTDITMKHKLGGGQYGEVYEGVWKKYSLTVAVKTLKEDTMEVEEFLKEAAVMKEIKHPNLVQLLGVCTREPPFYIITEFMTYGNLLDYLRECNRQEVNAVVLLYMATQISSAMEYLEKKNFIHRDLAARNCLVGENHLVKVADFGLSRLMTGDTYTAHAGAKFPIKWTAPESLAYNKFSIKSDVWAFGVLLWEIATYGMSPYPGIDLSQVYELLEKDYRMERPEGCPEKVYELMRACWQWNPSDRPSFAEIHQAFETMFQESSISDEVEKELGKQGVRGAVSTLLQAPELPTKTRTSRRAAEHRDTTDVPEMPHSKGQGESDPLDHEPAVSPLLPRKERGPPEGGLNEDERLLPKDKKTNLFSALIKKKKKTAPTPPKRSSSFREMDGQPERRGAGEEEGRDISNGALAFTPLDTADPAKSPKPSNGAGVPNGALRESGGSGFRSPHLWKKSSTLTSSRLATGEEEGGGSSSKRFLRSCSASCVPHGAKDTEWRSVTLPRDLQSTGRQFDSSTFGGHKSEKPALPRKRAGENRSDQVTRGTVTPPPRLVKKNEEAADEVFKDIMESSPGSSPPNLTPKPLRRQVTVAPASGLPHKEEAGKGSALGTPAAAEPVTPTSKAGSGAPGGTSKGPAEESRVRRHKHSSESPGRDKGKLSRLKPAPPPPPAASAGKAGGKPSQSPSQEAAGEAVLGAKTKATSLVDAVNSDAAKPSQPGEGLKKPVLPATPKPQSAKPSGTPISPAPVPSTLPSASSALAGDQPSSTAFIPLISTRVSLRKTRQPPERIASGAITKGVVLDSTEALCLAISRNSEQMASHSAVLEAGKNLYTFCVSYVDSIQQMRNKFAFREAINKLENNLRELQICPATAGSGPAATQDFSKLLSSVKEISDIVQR

c-ABL [2] = target: T2, c-ABL; test: Western-blot degradation of c-ABL in K562 cells; settings: 24 h
BCR-ABL [3] = target: T3, BCR-ABL (Homo sapiens, UniProt P00519); test: Western-blot half-degradation concentration (DC50) / degradation of BCR-ABL in K562 cells; settings: 24 h
T3 sequence (P00519 with tags, fused parts or gaps): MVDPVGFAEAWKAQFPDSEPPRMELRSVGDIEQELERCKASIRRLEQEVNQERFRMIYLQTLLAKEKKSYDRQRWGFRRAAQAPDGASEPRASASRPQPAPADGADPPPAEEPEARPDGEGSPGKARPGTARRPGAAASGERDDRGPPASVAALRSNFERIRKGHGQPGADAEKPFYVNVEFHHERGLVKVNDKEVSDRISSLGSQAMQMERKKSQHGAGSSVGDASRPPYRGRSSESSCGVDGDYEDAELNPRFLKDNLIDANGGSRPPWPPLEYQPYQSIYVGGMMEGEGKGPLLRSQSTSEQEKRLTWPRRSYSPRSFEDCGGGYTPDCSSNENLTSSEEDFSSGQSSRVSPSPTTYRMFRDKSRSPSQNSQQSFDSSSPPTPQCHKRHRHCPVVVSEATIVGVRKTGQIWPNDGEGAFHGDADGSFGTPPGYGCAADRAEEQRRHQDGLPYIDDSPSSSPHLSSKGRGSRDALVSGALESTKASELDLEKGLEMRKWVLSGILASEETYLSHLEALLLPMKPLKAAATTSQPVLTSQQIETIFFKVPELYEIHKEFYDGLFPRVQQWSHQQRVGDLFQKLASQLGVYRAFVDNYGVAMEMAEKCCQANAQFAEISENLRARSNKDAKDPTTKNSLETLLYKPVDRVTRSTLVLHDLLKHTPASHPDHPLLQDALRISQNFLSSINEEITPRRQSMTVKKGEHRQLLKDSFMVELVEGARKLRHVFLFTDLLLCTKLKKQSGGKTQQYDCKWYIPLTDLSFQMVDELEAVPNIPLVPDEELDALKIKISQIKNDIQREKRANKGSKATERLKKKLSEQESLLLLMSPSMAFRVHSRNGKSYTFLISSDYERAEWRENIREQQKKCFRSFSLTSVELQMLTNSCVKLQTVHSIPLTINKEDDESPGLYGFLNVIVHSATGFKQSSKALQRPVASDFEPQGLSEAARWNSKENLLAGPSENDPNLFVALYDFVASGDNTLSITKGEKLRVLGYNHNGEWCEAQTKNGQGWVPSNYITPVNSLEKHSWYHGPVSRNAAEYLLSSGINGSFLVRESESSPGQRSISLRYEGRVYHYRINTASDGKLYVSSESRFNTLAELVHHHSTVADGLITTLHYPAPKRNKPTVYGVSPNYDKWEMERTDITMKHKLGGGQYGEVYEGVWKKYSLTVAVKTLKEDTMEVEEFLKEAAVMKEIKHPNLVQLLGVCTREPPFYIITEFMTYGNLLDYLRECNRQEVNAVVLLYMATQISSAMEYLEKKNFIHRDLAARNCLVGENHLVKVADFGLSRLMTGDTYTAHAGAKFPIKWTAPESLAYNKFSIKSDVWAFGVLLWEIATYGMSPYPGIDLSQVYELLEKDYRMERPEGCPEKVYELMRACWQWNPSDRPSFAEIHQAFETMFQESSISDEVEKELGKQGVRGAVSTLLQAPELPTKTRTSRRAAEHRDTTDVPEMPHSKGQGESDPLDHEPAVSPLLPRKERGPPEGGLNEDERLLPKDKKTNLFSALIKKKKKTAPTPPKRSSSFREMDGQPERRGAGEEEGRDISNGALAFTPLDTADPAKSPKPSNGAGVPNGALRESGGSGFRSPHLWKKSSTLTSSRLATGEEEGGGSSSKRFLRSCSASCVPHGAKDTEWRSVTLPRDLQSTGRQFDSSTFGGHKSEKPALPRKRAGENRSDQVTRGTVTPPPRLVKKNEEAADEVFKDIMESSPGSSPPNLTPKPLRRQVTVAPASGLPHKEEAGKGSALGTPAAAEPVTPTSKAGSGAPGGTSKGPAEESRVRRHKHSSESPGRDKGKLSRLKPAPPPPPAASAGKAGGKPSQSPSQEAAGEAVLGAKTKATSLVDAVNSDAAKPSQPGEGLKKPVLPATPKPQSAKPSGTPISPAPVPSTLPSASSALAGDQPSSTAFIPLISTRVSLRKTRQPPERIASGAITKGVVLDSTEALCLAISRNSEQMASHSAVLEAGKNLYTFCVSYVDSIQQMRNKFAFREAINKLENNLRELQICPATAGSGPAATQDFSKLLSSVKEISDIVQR

BCR-ABL [4] = target: T3, BCR-ABL; test: Western-blot detection of BCR-ABL protein degradation (FIGS. 1-15); format: cell-based

Row | Structure (SMILES) | DC50 (ER protein) [nM] | ability to degrade c-ABL protein (Western-blot, in words) (c-ABL [1]) | degradation of c-ABL protein (Western-blot) (c-ABL [2]) | degradation of BCR-ABL protein (Western-blot) (BCR-ABL [3]) | ability to degrade BCR-ABL protein (Western-blot, in words) (BCR-ABL [4])
1 | CCC(=C(c1ccc(O)cc1)c1ccc(OCCNC(=O)CCCCCCSc2cccc3c2C(=O)N(C2CCC(=O)NC2=O)C3=O)cc1)c1ccc(O)cc1 (stereo not drawn) [SIAIS208170, N-(2-(4-(1,2-bis(4-hydroxyphenyl)but-1-en-1-yl)phenoxy)ethyl)-7-((2-(2,6-dioxopiperidin-3-yl)-1,3-dioxoisoindolin-4-yl)thio)heptanamide] | 10 | – | – | – | –
2 | Cc1nc(Nc2ncc(C(=O)Nc3c(C)cccc3Cl)s2)cc(N2CCN(C(=O)CNc3cccc4c3C(=O)N(C3CCC(=O)NC3=O)C4=O)CC2)n1 (stereo not drawn) [SIAIS151072, N-(2-chloro-6-methylphenyl)-2-((6-(4-((2-(2,6-dioxopiperidin-3-yl)-1,3-dioxoisoindolin-4-yl)aminoacetyl)piperazin-1-yl)-2-methylpyrimidin-4-yl)amino)thiazole-5-carboxamide] | – | significantly weaker ability to degrade | significantly weaker ability to degrade BCR-ABL and c-ABL proteins | significantly weaker ability to degrade BCR-ABL and c-ABL proteins | significantly weaker ability to degrade
3 | CCC(=C(c1ccc(O)cc1)c1ccc(OCCNC(=O)CCCCCCSc2cccc3c2CN(C2CCC(=O)NC2=O)C3=O)cc1)c1ccc(O)cc1 (stereo not drawn) [SIAIS208171, N-(2-(4-(1,2-bis(4-hydroxyphenyl)but-1-en-1-yl)phenoxy)ethyl)-7-((2-(2,6-dioxopiperidin-3-yl)-1-oxoisoindolin-4-yl)thio)heptanamide] | 10 | – | – | – | –
